Measured values taken from patent publication US8562949B2, “Radiolabeled dihydrotetrabenazine derivatives and their use as imaging agents” (The Trustees of the University of Pennsylvania, priority 2006, dated 2013).

Test: Biodistribution of [18F]FP-6b in normal mice (Table 4)
Assay type: in vivo, ICR mice
Conditions: iv
Description: After anesthetizing ICR mice (22-25 g male) with isoflurane, 0.15 mL of a 0.1% bovine serum albumin solution containing [^18F]FP-(+)-6b (10-20 μCi) was injected directly into the tail vein. The mice (n=3 for each time point) were sacrificed by cervical dislocation (under isoflurane anesthesia) at indicated time-points post-injection. The organs of interest were removed and weighed, and the radioactivity was counted with an automatic gamma counter. The percentage dose per organ was calculated by a comparison of the tissue counts to suitably diluted aliquots of the injected material. The total activity of the blood was calculated under the assumption that it was 7% of the total body weight. The % does/g of samples was calculated by comparing the sample counts with the count of the diluted initial dose.

Organ distribution Blood (2 min): 2.12 ± 0.17 % dose/g
Organ distribution Bone (2 min): 1.95 ± 0.30 % dose/g
Organ distribution Brain (2 min): 4.82 ± 0.86 % dose/g
Organ distribution Heart (2 min): 5.47 ± 1.19 % dose/g
Organ distribution Kidney (2 min): 10.7 ± 2.02 % dose/g
Organ distribution Liver (2 min): 24.6 ± 1.37 % dose/g
Organ distribution Lung (2 min): 9.04 ± 4.71 % dose/g
Organ distribution Muscle (2 min): 0.78 ± 0.11 % dose/g
Organ distribution Skin (2 min): 1.05 ± 0.12 % dose/g
Organ distribution Spleen (2 min): 7.38 ± 1.62 % dose/g
Ratio (vs CB) Cortex (2 min): 0.97
Ratio (vs CB) Hippocampus (2 min): 0.97
Ratio (vs CB) Hypothalamus (2 min): 1.37
Ratio (vs CB) Remainder (2 min): 1.01
Ratio (vs CB) Striatum (2 min): 1.56
Regional brain distribution Cerebellum (CB) (2 min): 4.67 ± 0.74 % dose/g
Regional brain distribution Cortex (2 min): 4.54 ± 0.66 % dose/g
Regional brain distribution Hippocampus (2 min): 4.54 ± 0.72 % dose/g
Regional brain distribution Hypothalamus (2 min): 6.41 ± 1.11 % dose/g
Regional brain distribution Remainder (2 min): 4.71 ± 0.74 % dose/g
Regional brain distribution Striatum (2 min): 7.28 ± 0.80 % dose/g
Organ distribution Blood (30 min): 1.73 ± 0.15 % dose/g
Organ distribution Bone (30 min): 4.88 ± 1.43 % dose/g
Organ distribution Brain (30 min): 2.05 ± 0.37 % dose/g
Organ distribution Heart (30 min): 2.43 ± 0.22 % dose/g
Organ distribution Kidney (30 min): 5.81 ± 1.15 % dose/g
Organ distribution Liver (30 min): 22.2 ± 1.98 % dose/g
Organ distribution Lung (30 min): 3.17 ± 0.33 % dose/g
Organ distribution Muscle (30 min): 1.10 ± 0.12 % dose/g
Organ distribution Skin (30 min): 1.42 ± 0.03 % dose/g
Organ distribution Spleen (30 min): 3.69 ± 0.25 % dose/g
Ratio (vs CB) Cortex (30 min): 1.34
Ratio (vs CB) Hippocampus (30 min): 1.59
Ratio (vs CB) Hypothalamus (30 min): 3.52
Ratio (vs CB) Remainder (30 min): 1.45
Ratio (vs CB) Striatum (30 min): 4.51
Regional brain distribution Cerebellum (CB) (30 min): 1.41 ± 0.23 % dose/g
Regional brain distribution Cortex (30 min): 1.88 ± 0.63 % dose/g
Regional brain distribution Hippocampus (30 min): 2.23 ± 0.59 % dose/g
Regional brain distribution Hypothalamus (30 min): 4.95 ± 0.84 % dose/g
Regional brain distribution Remainder (30 min): 2.04 ± 0.28 % dose/g
Regional brain distribution Striatum (30 min): 6.34 ± 1.01 % dose/g
Organ distribution Blood (60 min): 0.97 ± 0.04 % dose/g
Organ distribution Bone (60 min): 9.22 ± 0.48 % dose/g
Organ distribution Brain (60 min): 1.10 ± 0.32 % dose/g
Organ distribution Heart (60 min): 1.67 ± 0.02 % dose/g
Organ distribution Kidney (60 min): 3.48 ± 0.34 % dose/g
Organ distribution Liver (60 min): 14.5 ± 0.91 % dose/g
Organ distribution Lung (60 min): 2.00 ± 0.05 % dose/g
Organ distribution Muscle (60 min): 0.73 ± 0.04 % dose/g
Organ distribution Skin (60 min): 1.06 ± 0.04 % dose/g
Organ distribution Spleen (60 min): 2.11 ± 0.05 % dose/g
Ratio (vs CB) Cortex (60 min): 1.00
Ratio (vs CB) Hippocampus (60 min): 1.32
Ratio (vs CB) Hypothalamus (60 min): 2.71
Ratio (vs CB) Remainder (60 min): 1.45
Ratio (vs CB) Striatum (60 min): 4.74
Regional brain distribution Cerebellum (CB) (60 min): 0.89 ± 0.01 % dose/g
Regional brain distribution Cortex (60 min): 0.89 ± 0.11 % dose/g
Regional brain distribution Hippocampus (60 min): 1.18 ± 0.12 % dose/g
Regional brain distribution Hypothalamus (60 min): 2.42 ± 0.52 % dose/g
Regional brain distribution Remainder (60 min): 1.30 ± 0.08 % dose/g
Regional brain distribution Striatum (60 min): 4.24 ± 0.78 % dose/g
Organ distribution Blood (2 hr): 0.57 ± 0.09 % dose/g
Organ distribution Bone (2 hr): 12.7 ± 1.84 % dose/g
Organ distribution Brain (2 hr): 0.68 ± 0.11 % dose/g
Organ distribution Heart (2 hr): 0.91 ± 0.14 % dose/g
Organ distribution Kidney (2 hr): 2.28 ± 0.34 % dose/g
Organ distribution Liver (2 hr): 9.81 ± 0.94 % dose/g
Organ distribution Lung (2 hr): 1.26 ± 0.13 % dose/g
Organ distribution Muscle (2 hr): 0.53 ± 0.05 % dose/g
Organ distribution Skin (2 hr): 0.67 ± 0.06 % dose/g
Organ distribution Spleen (2 hr): 1.40 ± 0.35 % dose/g
Ratio (vs CB) Cortex (2 hr): 0.96
Ratio (vs CB) Hippocampus (2 hr): 1.09
Ratio (vs CB) Hypothalamus (2 hr): 1.90
Ratio (vs CB) Remainder (2 hr): 1.15
Ratio (vs CB) Striatum (2 hr): 3.28
Regional brain distribution Cerebellum (CB) (2 hr): 0.54 ± 0.09 % dose/g
Regional brain distribution Cortex (2 hr): 0.51 ± 0.02 % dose/g
Regional brain distribution Hippocampus (2 hr): 0.58 ± 0.15 % dose/g
Regional brain distribution Hypothalamus (2 hr): 1.02 ± 0.11 % dose/g
Regional brain distribution Remainder (2 hr): 0.62 ± 0.10 % dose/g
Regional brain distribution Striatum (2 hr): 1.76 ± 0.33 % dose/g
Organ distribution Blood (4 hr): 0.06 ± 0.02 % dose/g
Organ distribution Bone (4 hr): 3.49 ± 0.35 % dose/g
Organ distribution Brain (4 hr): 0.16 ± 0.03 % dose/g
Organ distribution Heart (4 hr): 0.12 ± 0.01 % dose/g
Organ distribution Kidney (4 hr): 0.31 ± 0.02 % dose/g
Organ distribution Liver (4 hr): 1.58 ± 0.08 % dose/g
Organ distribution Lung (4 hr): 0.19 ± 0.01 % dose/g
Organ distribution Muscle (4 hr): 0.06 ± 0.01 % dose/g
Organ distribution Skin (4 hr): 0.09 ± 0.01 % dose/g
Organ distribution Spleen (4 hr): 0.17 ± 0.02 % dose/g
Ratio (vs CB) Cortex (4 hr): 0.87
Ratio (vs CB) Hippocampus (4 hr): 0.99
Ratio (vs CB) Hypothalamus (4 hr): 1.15
Ratio (vs CB) Remainder (4 hr): 1.02
Ratio (vs CB) Striatum (4 hr): 1.11
Regional brain distribution Cerebellum (CB) (4 hr): 0.41 ± 0.02 % dose/g
Regional brain distribution Cortex (4 hr): 0.36 ± 0.02 % dose/g
Regional brain distribution Hippocampus (4 hr): 0.41 ± 0.01 % dose/g
Regional brain distribution Hypothalamus (4 hr): 0.47 ± 0.01 % dose/g
Regional brain distribution Remainder (4 hr): 0.42 ± 0.05 % dose/g
Regional brain distribution Striatum (4 hr): 0.46 ± 0.13 % dose/g
SMILES: COc1cc2c(cc1OCCC[18F])CCN1C[C@@H](CC(C)C)[C@H](O)C[C@H]21 [[^18F]-(+)-6b]
